IC50 data for 27 compounds are collected here from patent US11214565B2, “Compound, compositions, and methods” (Denali Therapeutics Inc., priority 2015, dated 2022).

The target of the assay is LRRK2 G2019S enzyme (Homo sapiens (Human), UniProt Q5S007, G2019S). The experiment in a line: LRRK2 G2019S TR-FRET biochemical kinase assay (LRRKtide substrate). Conditions: Table A-2; 5 nM LRRK2, 134 μM ATP, 60 minute reaction, 23° C. The procedure: LRRK2 G2019S enzyme, Substrate (LRRKtide), ATP, TR-FRET dilution buffer, pLRRKtide antibody, 384-well assay plate, and DMSO.
LRRK2 G2019S enzyme, sequence (Q5S007 whole entry G2019S): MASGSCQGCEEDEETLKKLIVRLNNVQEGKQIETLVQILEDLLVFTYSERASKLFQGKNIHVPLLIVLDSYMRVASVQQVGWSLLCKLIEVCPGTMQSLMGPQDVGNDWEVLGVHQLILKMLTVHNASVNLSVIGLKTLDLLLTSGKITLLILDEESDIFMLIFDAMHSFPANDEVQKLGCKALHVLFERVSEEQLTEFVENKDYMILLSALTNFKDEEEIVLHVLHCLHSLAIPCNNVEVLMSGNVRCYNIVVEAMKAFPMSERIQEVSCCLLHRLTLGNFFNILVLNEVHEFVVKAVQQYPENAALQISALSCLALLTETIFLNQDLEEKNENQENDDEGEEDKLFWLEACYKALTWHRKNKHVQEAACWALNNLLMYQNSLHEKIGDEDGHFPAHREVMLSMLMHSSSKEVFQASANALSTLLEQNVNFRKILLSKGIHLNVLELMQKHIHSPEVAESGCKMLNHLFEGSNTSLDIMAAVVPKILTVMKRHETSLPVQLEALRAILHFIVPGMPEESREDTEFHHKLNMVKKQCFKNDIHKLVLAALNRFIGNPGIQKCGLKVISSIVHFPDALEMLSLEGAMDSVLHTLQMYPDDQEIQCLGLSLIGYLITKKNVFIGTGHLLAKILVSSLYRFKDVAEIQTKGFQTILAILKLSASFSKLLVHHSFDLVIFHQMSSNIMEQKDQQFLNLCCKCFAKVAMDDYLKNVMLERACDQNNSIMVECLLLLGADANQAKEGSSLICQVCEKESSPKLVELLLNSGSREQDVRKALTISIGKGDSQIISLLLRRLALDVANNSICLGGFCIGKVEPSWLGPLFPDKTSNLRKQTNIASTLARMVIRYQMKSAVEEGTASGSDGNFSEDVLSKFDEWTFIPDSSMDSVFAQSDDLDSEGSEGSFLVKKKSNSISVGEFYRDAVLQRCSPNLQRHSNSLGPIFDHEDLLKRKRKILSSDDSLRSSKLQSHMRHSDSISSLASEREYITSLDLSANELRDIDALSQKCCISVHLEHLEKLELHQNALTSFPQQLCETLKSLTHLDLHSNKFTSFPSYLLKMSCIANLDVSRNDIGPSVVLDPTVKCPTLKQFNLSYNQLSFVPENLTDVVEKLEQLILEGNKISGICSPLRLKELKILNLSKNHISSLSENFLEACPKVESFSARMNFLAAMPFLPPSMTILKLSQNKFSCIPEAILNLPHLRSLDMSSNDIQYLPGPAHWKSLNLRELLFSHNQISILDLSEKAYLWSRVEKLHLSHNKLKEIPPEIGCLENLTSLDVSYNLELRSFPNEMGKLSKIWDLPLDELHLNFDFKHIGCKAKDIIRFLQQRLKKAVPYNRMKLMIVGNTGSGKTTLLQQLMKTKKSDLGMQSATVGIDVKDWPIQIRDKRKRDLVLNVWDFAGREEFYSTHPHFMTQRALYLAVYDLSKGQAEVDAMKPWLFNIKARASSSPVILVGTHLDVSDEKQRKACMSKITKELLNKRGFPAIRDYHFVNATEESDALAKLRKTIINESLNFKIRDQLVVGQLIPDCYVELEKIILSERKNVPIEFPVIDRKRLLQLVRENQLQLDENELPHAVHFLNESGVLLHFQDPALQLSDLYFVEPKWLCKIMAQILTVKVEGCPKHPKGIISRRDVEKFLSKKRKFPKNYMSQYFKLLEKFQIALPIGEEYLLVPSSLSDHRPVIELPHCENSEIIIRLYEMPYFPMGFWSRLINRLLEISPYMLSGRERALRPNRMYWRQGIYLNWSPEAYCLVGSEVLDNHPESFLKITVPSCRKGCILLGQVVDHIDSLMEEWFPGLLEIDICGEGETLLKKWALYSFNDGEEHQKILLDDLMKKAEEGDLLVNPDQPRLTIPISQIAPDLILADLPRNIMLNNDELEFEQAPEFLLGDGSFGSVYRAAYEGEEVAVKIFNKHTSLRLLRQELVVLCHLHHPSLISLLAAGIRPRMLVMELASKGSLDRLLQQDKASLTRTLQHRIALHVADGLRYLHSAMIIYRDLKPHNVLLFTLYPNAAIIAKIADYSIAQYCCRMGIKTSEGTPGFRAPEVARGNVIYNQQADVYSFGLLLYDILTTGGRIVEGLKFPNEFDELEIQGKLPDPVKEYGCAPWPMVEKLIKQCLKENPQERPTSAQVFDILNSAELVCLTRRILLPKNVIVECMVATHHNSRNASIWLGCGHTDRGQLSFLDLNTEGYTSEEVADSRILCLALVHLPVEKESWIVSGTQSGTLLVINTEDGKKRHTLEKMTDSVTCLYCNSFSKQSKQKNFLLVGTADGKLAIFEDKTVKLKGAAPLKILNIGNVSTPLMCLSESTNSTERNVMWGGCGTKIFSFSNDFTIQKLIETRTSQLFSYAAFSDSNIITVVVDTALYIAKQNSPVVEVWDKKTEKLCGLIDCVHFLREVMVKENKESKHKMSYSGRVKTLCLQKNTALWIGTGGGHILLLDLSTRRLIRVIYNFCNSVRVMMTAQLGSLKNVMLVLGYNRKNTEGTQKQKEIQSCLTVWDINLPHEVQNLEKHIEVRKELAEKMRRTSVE
50 mM Tris pH 7.5, 10 mM MgCl2, 1 mM EGTA, 0.01% Brij-35, 2 mM DTT, 5 nM LRRK2, 134 μM ATP, 60 minute reaction time, 23° C. reaction temperature, and 10 μL total reaction volume.
1×TR-FRET dilution buffer, 10 mM EDTA, 2 nM antibody, 23° C. reaction temperature, and 10 μL total reaction volume.
Compound solutions were prepared by initially diluting to 1 mM with DMSO. 35 μL of reference compound solution, 35 μL of test compound solution, and 35 μL HPE were successively added to the source plate (384-well assay plate, Labcyte). The plates were centrifuged at 2500 rpm for 1 minute and sealed in foil. POD was used to perform a 3.162 fold serial dilution and 100 nL of reference compound solution, test compound solution, HPE and ZPE were transferred to assay plates. The assay plate was centrifuged at 2500 rpm for 1 minute, and sealed with foil.
To perform the enzyme reaction, 5 μL of LRRKtide substrate and kinase mixture in assay buffer was added to all wells of the assay plate. The plate was centrifuged to concentrate the mixture at the bottom of the wells. The assay plate was incubated at 23° C. for 20 minutes. Following incubation, 5 μL of 2×ATP in assay buffer was added to each well, and plates were centrifuged to concentrate the mixture at the bottom of the wells. The plate was incubated at 23° C. for 60 minutes.
To perform the detection of the reaction, EDTA completely mixed in TR-FRET dilution buffer was added to antibody reagent. 10 μL of detection reagent was added to all wells of each well of the assay-plate and the plate was centrifuged to concentrate the mixture at the bottom of the wells. The plate was then incubated at 23° C. for 60 minutes. Plates were read on Perkin Elmer Envision 2104 instrument in TR-FRET mode using a 340 nm excitation filter, 520 nm fluorescence emission filter, and 490 or 495 nm terbium emission filter.
B-2, C2, and D-4 respectively.
For orientation: Time-resolved FRET reads energy transfer from a long-lived donor to a nearby acceptor.
For orientation: IC50 means the concentration that inhibits the measured activity by half. The low end stands for greater potency in that assay, the high end for weaker potency in that assay. The compound `Cc1c(Nc2ncc(Cl)c(C3CC3)n2)cnn1C(CF)CF` [Compound A-43, 5-chloro-4-cyclopropyl-N-[1-[2-fluoro-1-(fluoromethyl)ethyl]-5-methyl-pyrazol-4-yl]pyrimidin-2-amine] gave an IC50 of less than 30 nM.
On to `Cc1nn(C(CF)CF)cc1Nc1ncc(Cl)c(C2CC2)n1` [Compound A-44, 5-chloro-4-cyclopropyl-N-[1-[2-fluoro-1-(fluoromethyl)ethyl]-3-methyl-pyrazol-4-yl]pyrimidin-2-amine], for which the IC50 was less than 30 nM.
The compound `FCC(CF)n1ncc(Nc2ncc(C(F)(F)F)c(C3CC3)n2)c1Cl` [Compound A-45, N-[5-chloro-1-[2-fluoro-1-(fluoromethyl)ethyl]pyrazol-4-yl]-4-cyclopropyl-5-(trifluoromethyl)pyrimidin-2-amine] displayed an IC50 of less than 30 nM.
As for `FCC(CF)n1cc(Nc2ncc(C(F)(F)F)c(C3CC3)n2)c(Cl)n1` [Compound A-46, N-[3-chloro-1-[2-fluoro-1-(fluoromethyl)ethyl]pyrazol-4-yl]-4-cyclopropyl-5-(trifluoromethyl)pyrimidin-2-amine], the figure is less than 30 nM; as for `Cc1nn(C2(C#N)CC2)cc1Nc1ncc(C(F)(F)F)c(C2CC2)n1` [Compound A-47, 1-[4-[[4-cyclopropyl-5-(trifluoromethyl)pyrimidin-2-yl]amino]-3-methyl-pyrazol-1-yl]cyclopropanecarbonitrile], less than 30 nM; as for `F[C@H]1CN(C2COC2)CC[C@@H]1n1ncc(Nc2ncc(C(F)(F)F)c(C3CC3)n2)c1Cl` [Compound A-48, N-(5-chloro-1-((3S,4S)-3-fluoro-1-(oxetan-3-yl)piperidin-4-yl)-1H-pyrazol-4-yl)-4-cyclopropyl-5-(trifluoromethyl)pyrimidin-2-amine], less than 30 nM.
`CCn1cnc(C(C)(C)n2cc(Nc3ncc(C(F)(F)F)c(C4CC4)n3)c(C)n2)n1` [Compound A-51, 4-cyclopropyl-N-(1-(2-(1-ethyl-1H-1,2,4-triazol-3-yl)propan-2-yl)-3-methyl-1H-pyrazol-4-yl)-5-(trifluoromethyl)pyrimidin-2-amine] registered an IC50 of less than 30 nM.
On to `Cc1nn(C2(c3ncn(C)n3)CC2)cc1Nc1ncc(C(F)(F)F)c(C2CC2)n1` [Compound A-52, 4-cyclopropyl-N-[3-methyl-1-[1-(1-methyl-1,2,4-triazol-3-yl)cyclopropyl]pyrazol-4-yl]-5-(trifluoromethyl)pyrimidin-2-amine], for which the IC50 was greater than 60 nM.
For `Cc1nn(C(C)(C)c2ncn(C)n2)cc1Nc1ncc(Br)c(C2CC2)n1` [Compound A-53, 5-bromo-4-cyclopropyl-N-(3-methyl-1-(2-(1-methyl-1H-1,2,4-triazol-3-yl)propan-2-yl)-1H-pyrazol-4-yl)pyrimidin-2-amine], the IC50 is less than 30 nM.
In turn, `Cc1c(Nc2ncc(C(F)(F)F)c(C3CC3)n2)cnn1Cc1ccn(C)n1` [Compound A-54, 4-cyclopropyl-N-[5-methyl-1-[(1-methylpyrazol-3-yl)methyl]pyrazol-4-yl]-5-(trifluoromethyl)pyrimidin-2-amine] registered an IC50 of less than 30 nM.
In the case of `Cc1nn(Cc2ccn(C)n2)cc1Nc1ncc(C(F)(F)F)c(C2CC2)n1` [Compound A-55, 4-cyclopropyl-N-(3-methyl-1-((1-methyl-1H-pyrazol-3-yl)methyl)-1H-pyrazol-4-yl)-5-(trifluoromethyl)pyrimidin-2-amine], the IC50 is less than 30 nM.
`Cc1nn(C(C)(C)c2cn(C)cn2)cc1Nc1ncc(C(F)(F)F)c(C2CC2)n1` [Compound A-56, 4-cyclopropyl-N-(3-methyl-1-(2-(1-methyl-1H-imidazol-4-yl)propan-2-yl)-1H-pyrazol-4-yl)-5-(trifluoromethyl)pyrimidin-2-amine] had an IC50 of less than 30 nM.
As to `CC(C)(O)Cn1ncc(Nc2ncc(C(F)(F)F)c(C3CC3)n2)c1Cl` [Compound A-57, 1-[5-chloro-4-[[4-cyclopropyl-5-(trifluoromethyl)pyrimidin-2-yl]amino]pyrazol-1-yl]-2-methyl-propan-2-ol], the IC50 was greater than 60 nM.
For the compound `Cc1nn(C(C)(C)c2nc[nH]n2)cc1Nc1ncc(C(F)(F)F)c(C2CC2)n1` [Compound A-58, N-(1-(2-(1H-1,2,4-triazol-3-yl)propan-2-yl)-3-methyl-1H-pyrazol-4-yl)-4-cyclopropyl-5-(trifluoromethyl)pyrimidin-2-amine], the IC50 is less than 30 nM.
As to `FC(F)(F)c1cnc(Nc2cnn(CC3(CN4CCOCC4)CC3)c2Cl)nc1C1CC1` [Compound A-63, N-[5-chloro-1-[[1-(morpholinomethyl)cyclopropyl]methyl]pyrazol-4-yl]-4-cyclopropyl-5-(trifluoromethyl)pyrimidin-2-amine], the IC50 lay in the range of 30 to 60 nM.
As to `Cn1cnc(C(C)(C)n2cc(Nc3ncc(C(F)(F)F)c(C4CC4)n3)c(CO)n2)n1` [Compound A-66], the IC50 is greater than 60 nM.
On to `Cc1nn(C(C)(C)c2ccn[nH]2)cc1Nc1ncc(C(F)(F)F)c(C2CC2)n1` [Compound A-67, 4-cyclopropyl-N-[3-methyl-1-[1-methyl-1-(1H-pyrazol-5-yl)ethyl]pyrazol-4-yl]-5-(trifluoromethyl)pyrimidin-2-amine], for which the IC50 is less than 30 nM.
For `Cc1c(Nc2ncc(C(F)(F)F)c(C3CC3)n2)cnn1[C@H]1CC2C(C1)[C@H]2c1ncnn1C` (stereo partly drawn) [Compound A-68, 4-cyclopropyl-N-(5-methyl-1-((1R,3s,5S,6r)-6-(1-methyl-1H-1,2,4-triazol-5-yl)bicyclo[3.1.0]hexan-3-yl)-1H-pyrazol-4-yl)-5-(trifluoromethyl)pyrimidin-2-amine], the IC50 was less than 30 nM.
As for `Cc1nn([C@H]2CC3C(C2)[C@H]3c2ncn(C)n2)cc1Nc1ncc(C(F)(F)F)c(C2CC2)n1` (stereo partly drawn) [Compound A-69, 4-cyclopropyl-N-(3-methyl-1-((1R,3r,5S,6r)-6-(1-methyl-1H-1,2,4-triazol-3-yl)bicyclo[3.1.0]hexan-3-yl)-1H-pyrazol-4-yl)-5-(trifluoromethyl)pyrimidin-2-amine], the figure is less than 30 nM.
`Cc1nn([C@H]2CC3C(C2)[C@H]3c2ncnn2C)cc1Nc1ncc(C(F)(F)F)c(C2CC2)n1` (stereo partly drawn) [Compound A-70, 4-cyclopropyl-N-(3-methyl-1-((1R,3s,5S,6r)-6-(1-methyl-1H-1,2,4-triazol-5-yl)bicyclo[3.1.0]hexan-3-yl)-1H-pyrazol-4-yl)-5-(trifluoromethyl)pyrimidin-2-amine] yielded an IC50 of less than 30 nM.
As for `Cc1nn(C(C)(C)c2cn[nH]n2)cc1Nc1ncc(C(F)(F)F)c(C2CC2)n1` [Compound A-71, N-(1-(2-(2H-1,2,3-triazol-4-yl)propan-2-yl)-3-methyl-1H-pyrazol-4-yl)-4-cyclopropyl-5-(trifluoromethyl)pyrimidin-2-amine], the figure is less than 30 nM; as for `Cc1nnc(C(C)(C)n2cc(Nc3ncc(C(F)(F)F)c(C4CC4)n3)c(C)n2)o1` [Compound A-74, 4-cyclopropyl-N-(3-methyl-1-(2-(5-methyl-1,3,4-oxadiazol-2-yl)propan-2-yl)-1H-pyrazol-4-yl)-5-(trifluoromethyl)pyrimidin-2-amine], 30 to 60 nM; as for `Cc1nn(C(F)(F)c2ncn(C)n2)cc1Nc1ncc(C(F)(F)F)c(C2CC2)n1` [Compound A-75, 4-cyclopropyl-N-[1-[difluoro(1-methyl-1H-1,2,4-triazol-3-yl)methyl]-3-methyl-pyrazol-4-yl]-5-(trifluoromethyl)pyrimidin-2-amine], less than 30 nM.
Compound `Cc1nn(C(F)(F)c2ncnn2C)cc1Nc1ncc(C(F)(F)F)c(C2CC2)n1` [Compound A-76, 4-cyclopropyl-N-[1-[difluoro-(2-methyl-1,2,4-triazol-3-yl)methyl]-3-methyl-pyrazol-4-yl]-5-(trifluoromethyl)pyrimidin-2-amine] yielded an IC50 greater than 60 nM.
`Cc1nn(C(F)(F)c2nc[nH]n2)cc1Nc1ncc(C(F)(F)F)c(C2CC2)n1` [Compound A-77, 4-cyclopropyl-N-(1-(difluoro(1H-1,2,4-triazol-3-yl)methyl)-3-methyl-1H-pyrazol-4-yl)-5-(trifluoromethyl)pyrimidin-2-amine] had a half-inhibitory concentration (IC50) of less than 30 nM.
With `Cc1c(Nc2ncc(C(F)(F)F)c(C3CC3)n2)cnn1[C@H]1C[C@H](c2ncnn2C)C1` [Compound A-80, 4-cyclopropyl-N-(5-methyl-1-((1r,3r)-3-(1-methyl-1H-1,2,4-triazol-5-yl)cyclobutyl)-1H-pyrazol-4-yl)-5-(trifluoromethyl)pyrimidin-2-amine], the IC50 is less than 30 nM.
On to `Cc1nn([C@H]2C[C@H](c3ncnn3C)C2)cc1Nc1ncc(C(F)(F)F)c(C2CC2)n1` [Compound A-81, 4-cyclopropyl-N-(3-methyl-1-((1r,3r)-3-(1-methyl-1H-1,2,4-triazol-5-yl)cyclobutyl)-1H-pyrazol-4-yl)-5-(trifluoromethyl)pyrimidin-2-amine], for which the IC50 is less than 30 nM.
